Counter-ions that a name gives are not always drawn. Like-named read-outs stand apart in the source and are kept apart here.
Target: T1, human Nav1.8/b3 (Homo sapiens, UniProt Q9Y5Y9)
T1 construct: expressed in transfected cells; host or cells: CHO
Assay: Compound Profiling Human NaV1.8/β3 Cell Line—SyncroPatch384PE Assay (automated patch clamp, stably transfected CHO cells)
Type: cell-based
Details: Nav1.8/b3 CHO cells

[1] = P1 (IC50, resting state block), P1 measurement, resting state block, holding potential −120 mV, first set of compounds
[2] = P2 (IC50, inactivated state block), P2 measurement, inactivated state block, inactivation step −35 mV 10 sec, first set of compounds
[3] = P1 (IC50, resting state block), P1 measurement, resting state block, holding potential −120 mV, third set of compounds
[4] = P2 (IC50, inactivated state block), P2 measurement, inactivated state block, inactivation step −35 mV 10 sec, third set of compounds
[5] = P1 (IC50, resting state block), P1 measurement, resting state block, holding potential −120 mV, fourth set of compounds
[6] = P2 (IC50, inactivated state block), P2 measurement, inactivated state block, inactivation step −35 mV 10 sec, fourth set of compounds
[7] = P1 (IC50, resting state block), P1 measurement, resting state block, holding potential −120 mV, second set of compounds
[8] = P2 (IC50, inactivated state block), P2 measurement, inactivated state block, inactivation step −35 mV 10 sec, second set of compounds

T1 sequence (Q9Y5Y9 whole entry): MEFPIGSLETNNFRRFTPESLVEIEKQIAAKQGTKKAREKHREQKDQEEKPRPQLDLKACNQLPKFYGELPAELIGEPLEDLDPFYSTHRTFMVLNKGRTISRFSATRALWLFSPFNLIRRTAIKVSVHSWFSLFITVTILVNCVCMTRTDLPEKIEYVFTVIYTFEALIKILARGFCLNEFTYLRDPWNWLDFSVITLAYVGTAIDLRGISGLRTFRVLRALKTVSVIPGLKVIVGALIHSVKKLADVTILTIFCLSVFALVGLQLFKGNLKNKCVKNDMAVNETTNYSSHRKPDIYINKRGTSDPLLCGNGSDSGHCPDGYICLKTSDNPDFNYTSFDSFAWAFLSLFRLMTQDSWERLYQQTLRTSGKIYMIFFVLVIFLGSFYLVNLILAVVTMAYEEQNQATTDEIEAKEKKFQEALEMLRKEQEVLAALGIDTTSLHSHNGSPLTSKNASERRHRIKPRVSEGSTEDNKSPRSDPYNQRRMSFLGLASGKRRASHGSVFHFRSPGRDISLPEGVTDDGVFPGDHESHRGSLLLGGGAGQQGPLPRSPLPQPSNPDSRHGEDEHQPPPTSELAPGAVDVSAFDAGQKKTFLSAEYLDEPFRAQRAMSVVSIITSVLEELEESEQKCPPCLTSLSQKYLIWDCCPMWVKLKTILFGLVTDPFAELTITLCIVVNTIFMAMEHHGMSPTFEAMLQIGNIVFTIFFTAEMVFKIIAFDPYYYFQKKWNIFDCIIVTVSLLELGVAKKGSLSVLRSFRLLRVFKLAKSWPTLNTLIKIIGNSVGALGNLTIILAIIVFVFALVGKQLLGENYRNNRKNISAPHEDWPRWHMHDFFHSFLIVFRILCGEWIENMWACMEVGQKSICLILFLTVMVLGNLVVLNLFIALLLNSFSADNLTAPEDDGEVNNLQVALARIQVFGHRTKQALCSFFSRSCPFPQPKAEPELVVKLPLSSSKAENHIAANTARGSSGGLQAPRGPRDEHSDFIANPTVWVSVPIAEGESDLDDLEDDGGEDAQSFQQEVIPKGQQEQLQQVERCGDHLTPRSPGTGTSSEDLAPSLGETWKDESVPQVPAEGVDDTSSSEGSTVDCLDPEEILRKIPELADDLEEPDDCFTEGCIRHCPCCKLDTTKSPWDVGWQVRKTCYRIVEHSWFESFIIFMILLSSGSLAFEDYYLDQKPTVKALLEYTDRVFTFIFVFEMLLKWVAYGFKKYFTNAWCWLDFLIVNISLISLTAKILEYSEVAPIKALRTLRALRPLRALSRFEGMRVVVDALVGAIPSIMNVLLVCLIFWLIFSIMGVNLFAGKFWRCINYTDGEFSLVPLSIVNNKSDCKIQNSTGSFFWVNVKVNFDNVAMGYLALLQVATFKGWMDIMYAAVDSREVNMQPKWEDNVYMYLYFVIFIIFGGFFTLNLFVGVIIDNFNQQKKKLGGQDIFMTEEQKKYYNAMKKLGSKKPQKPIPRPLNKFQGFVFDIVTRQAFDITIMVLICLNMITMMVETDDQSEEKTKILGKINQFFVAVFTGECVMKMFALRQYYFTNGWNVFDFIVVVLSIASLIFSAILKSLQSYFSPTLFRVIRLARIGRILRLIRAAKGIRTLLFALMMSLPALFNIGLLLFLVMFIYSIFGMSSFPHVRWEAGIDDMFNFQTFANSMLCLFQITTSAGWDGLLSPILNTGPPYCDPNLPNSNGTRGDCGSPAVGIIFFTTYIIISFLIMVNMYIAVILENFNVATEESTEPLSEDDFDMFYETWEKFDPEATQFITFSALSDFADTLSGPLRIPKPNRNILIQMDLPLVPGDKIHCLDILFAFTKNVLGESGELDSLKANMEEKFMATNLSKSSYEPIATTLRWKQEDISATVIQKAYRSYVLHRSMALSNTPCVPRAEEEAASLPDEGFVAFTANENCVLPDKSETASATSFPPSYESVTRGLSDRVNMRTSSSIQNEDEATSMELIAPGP
T1 sequence (Q9NY72 23-215 partner): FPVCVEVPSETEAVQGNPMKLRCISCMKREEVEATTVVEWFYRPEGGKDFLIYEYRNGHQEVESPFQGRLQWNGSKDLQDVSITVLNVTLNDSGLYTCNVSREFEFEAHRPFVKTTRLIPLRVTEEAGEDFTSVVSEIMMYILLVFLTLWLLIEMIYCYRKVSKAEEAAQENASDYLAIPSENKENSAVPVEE

For `Cc1nc(F)ccc1Oc1cc(C2CC2)c(C(F)(F)F)cc1C(=O)Nc1ccc(F)c([S@](C)(=N)=O)c1` [Example 52A], the IC50 [1] was under 5 nM and the IC50 [2] was under 5 nM.

With `Cc1nc(F)ccc1Oc1cc(C(F)(F)F)c(Cl)c(F)c1C(=O)Nc1ccc(C(N)=O)cc1` [Example 37A] the IC50 [1] was under 5 nM and the IC50 [2] was under 5 nM.

For `Cc1nc(F)ccc1Oc1ncc(I)c(C)c1C(=O)Nc1cccc([S@](C)(=N)=O)c1` [Example 122C], the IC50 [3] was 5 to 50 nM and the IC50 [4] was 5 to 50 nM.

Compound `Cc1nc(F)ccc1Oc1cc(C(F)(F)F)c(Cl)c(F)c1C(=O)Nc1cccc([S@](C)(=N)=O)c1` [Example 43A] has an IC50 [1] of under 5 nM and an IC50 [2] of under 5 nM.

`Cc1nc(F)ccc1Oc1cc(C(F)(F)F)cc(F)c1C(=O)Nc1ccnc([S@](C)(=N)=O)c1` [Example 40A] showed an IC50 [1] of 5 to 50 nM and an IC50 [2] of 5 to 50 nM.

In the case of `Cc1nc(F)ccc1Oc1c(C(F)(F)F)ncc(F)c1C(=O)Nc1cccc([S@](C)(=N)=O)c1` [Example 36C, (R)-5-fluoro-3-((6-fluoro-2-methylpyridin-3-yl)oxy)-N-(3-(S-methylsulfonimidoyl)phenyl)-2-(trifluoromethyl)isonicotinamide], the IC50 [3] is reported as over 200 nM and the IC50 [4] is reported as over 200 nM.

For `COc1cc(C#N)ccc1Oc1ncc(-c2ccc(C)cc2)c(C)c1C(=O)Nc1cccc([S@](C)(=N)=O)c1` [Example 21C, (R)-2-(4-cyano-2-methoxyphenoxy)-4-methyl-N-(3-(S-methylsulfonimidoyl)phenyl)-5-(p-tolyl)nicotinamide], the IC50 [3] was under 5 nM and the IC50 [4] was under 5 nM.

Work on `Cc1nc(F)ccc1Oc1nnc(C(F)(F)F)c(C)c1C(=O)Nc1cccc([S@@](C)(=O)=NC(=O)[C@@H]2CCCN2)c1` [Example 26D, N-(3-((R)—N-(L-prolyl)-S-methylsulfonimidoyl)phenyl)-3-((6-fluoro-2-methylpyridin-3-yl)oxy)-5-methyl-6-(trifluoromethyl)pyridazine-4-carboxamide] yielded an IC50 [5] of under 5 nM and an IC50 [6] of under 5 nM.

In the case of `Cc1nc(F)ccc1Oc1ncc(C(F)(F)F)c(C)c1C(=O)Nc1cccc([S@@](C)(=O)=NC(=O)C2CNC2)c1` [Example 4D, (R)—N-(3-(N-(azetidine-3-carbonyl)-S-methylsulfonimidoyl)phenyl)-2-((6-fluoro-2-methylpyridin-3-yl)oxy)-4-methyl-5-(trifluoromethyl)nicotinamide], the IC50 [5] is reported as under 5 nM and the IC50 [6] is reported as under 5 nM.

With `CNCC(=O)N=[S@](C)(=O)c1cccc(NC(=O)c2c(Oc3ccc(F)nc3C)ccc(C(F)(F)F)c2C)c1` [Example 25B] the IC50 [7] was under 5 nM and the IC50 [8] was under 5 nM.

In the case of `Cc1nc(F)ccc1Oc1nnc(C(F)(F)F)c(C)c1C(=O)Nc1cccc([S@@](C)(=O)=NC(=O)[C@@H](C)N)c1` [Example 21D, N-(3-((R)—N-(D-alanyl)-S-methylsulfonimidoyl)phenyl)-3-((6-fluoro-2-methylpyridin-3-yl)oxy)-5-methyl-6-(trifluoromethyl)pyridazine-4-carboxamide], the IC50 [5] is reported as under 5 nM and the IC50 [6] is reported as under 5 nM.

With `Cc1nc(F)ccc1Oc1ncc(C2CCC2)c(C)c1C(=O)Nc1cccc([S@](C)(=N)=O)c1` [Example 99C] the IC50 [3] was 5 to 50 nM and the IC50 [4] was 5 to 50 nM.

`Cc1nc(F)ccc1Oc1ncc(C(F)(F)F)c(C)c1C(=O)Nc1cccc([S@@](C)(=O)=NC(=O)[C@@H]2CCCN2)c1` [Example 22D, N-(3-((R)—N-(L-prolyl)-S-methylsulfonimidoyl)phenyl)-2-((6-fluoro-2-methylpyridin-3-yl)oxy)-4-methyl-5-(trifluoromethyl)nicotinamide] was tested, and the IC50 [5] was under 5 nM and the IC50 [6] was under 5 nM.

In the case of `Cc1nc(F)ccc1Oc1nnc(C(F)(F)F)c(C)c1C(=O)Nc1cccc([S@@](C)(=O)=NC(=O)[C@@H](C)O)c1` [Example 19D, 3-((6-fluoro-2-methylpyridin-3-yl)oxy)-N-(3-((R)—N—((R)-2-hydroxypropanoyl)-S-methylsulfonimidoyl)phenyl)-5-methyl-6-(trifluoromethyl)pyridazine-4-carboxamide], the IC50 [5] is reported as 5 to 50 nM and the IC50 [6] is reported as 5 to 50 nM.

`Cc1nc(F)ccc1Oc1cc(C(F)(F)F)c(Cl)cc1C(=O)Nc1ccc(F)c([S@@+](C)[O-])c1` [Example 56A] showed an IC50 [1] of under 5 nM and an IC50 [2] of under 5 nM.

`Cc1nc(F)ccc1Oc1cc(C(F)(F)F)c(Cl)cc1C(=O)Nc1cccc([S@@](C)(=O)=NC(=O)C2(N)CCC2)c1` [Example 6B, (R)—N-(3-(N-(1-aminocyclobutane-1-carbonyl)-S-methylsulfonimidoyl)phenyl)-5-chloro-2-((6-fluoro-2-methylpyridin-3-yl)oxy)-4-(trifluoromethyl)benzamide] was tested, and the IC50 [7] was under 5 nM and the IC50 [8] was under 5 nM.

In the case of `Cc1nc(F)ccc1Oc1ncc(C(C)C)c(C)c1C(=O)Nc1cccc([S@](C)(=N)=O)c1` [Example 104C], the IC50 [3] is reported as 50 to 100 nM and the IC50 [4] is reported as 50 to 100 nM.

`Cc1nc(F)ccc1Oc1cc(C(F)(F)F)c(Cl)cc1C(=O)Nc1ccc(F)c([S@+](C)[O-])c1` [Example 55A] showed an IC50 [1] of under 5 nM and an IC50 [2] of under 5 nM.

`Cc1nc(F)ccc1Oc1ccc(C(F)(F)F)c(C)c1C(=O)Nc1cccc([S@](C)(=N)=O)c1` [Example 3A, (R)-6-((6-fluoro-2-methylpyridin-3-yl)oxy)-2-methyl-N-(3-(S-methylsulfonimidoyl)phenyl)-3-(trifluoromethyl)benzamide] gave an IC50 [1] of under 5 nM and an IC50 [2] of under 5 nM.

Compound `CNCC(=O)N=[S@](C)(=O)c1cccc(NC(=O)c2cc(Cl)c(C(F)(F)F)cc2Oc2ccc(F)nc2C)c1` [Example 29B] has an IC50 [7] of under 5 nM and an IC50 [8] of under 5 nM.

For `Cc1nc(F)ccc1Oc1cc(C(F)(F)F)c(Cl)cc1C(=O)Nc1ccc(C(N)=O)cc1` [Example 68A], the IC50 [1] was 5 to 50 nM and the IC50 [2] was under 5 nM.

`CNCC(=O)N=[S@](C)(=O)c1cccc(NC(=O)c2c(Oc3ccc(F)nc3C)ccc(C(F)(F)F)c2F)c1` [Example 17B, (R)-2-fluoro-6-((6-fluoro-2-methylpyridin-3-yl)oxy)-N-(3-(S-methyl-N-(methylglycyl)sulfonimidoyl)phenyl)-3-(trifluoromethyl)benzamide] was tested, and the IC50 [7] was under 5 nM and the IC50 [8] was under 5 nM.

In the case of `COc1cc(C#N)ccc1Oc1ncc(-c2ccc(C(F)F)cc2)c(C)c1C(=O)Nc1ccnc(S(C)(=N)=O)c1` (stereo not drawn) [Example 125C], the IC50 [3] is reported as over 200 nM and the IC50 [4] is reported as over 200 nM.

Compound `Cc1nc(F)ccc1Oc1ncc(C(F)(F)F)c(C)c1C(=O)Nc1ccc(C(N)=O)nc1` [Example 111C] has an IC50 [3] of over 200 nM and an IC50 [4] of over 200 nM.

For `Cc1nc(F)ccc1Oc1ncc(C(F)F)c(C)c1C(=O)Nc1ccnc([S@](C)(=N)=O)c1` [Example 115C], the IC50 (P1 measurement, resting state block, holding potential −120 mV, third set of compounds, read-out: P1 (IC50, resting state block)) was over 200 nM and the IC50 (P2 measurement, inactivated state block, inactivation step −35 mV 10 sec, third set of compounds, read-out: P2 (IC50, inactivated state block)) was over 200 nM.

`Cc1nc(F)ccc1Oc1ncc(C(F)(F)F)c(C)c1C(=O)Nc1cccc([S@@](C)(=O)=NC(=O)C2(N)CC2)c1` [Example 5D, (R)—N-(3-(N-(1-aminocyclopropane-1-carbonyl)-S-methylsulfonimidoyl)phenyl)-2-((6-fluoro-2-methylpyridin-3-yl)oxy)-4-methyl-5-(trifluoromethyl)nicotinamide] showed an IC50 [5] of under 5 nM and an IC50 [6] of under 5 nM.

With `Cc1nc(F)ccc1Oc1cc(C(F)(F)F)c(Cl)cc1C(=O)Nc1ccnc([S@@](C)(=N)=O)c1` (single isomer, unassigned) [Example 5A] the IC50 [1] was 5 to 50 nM and the IC50 [2] was 5 to 50 nM.

With `Cc1nc(F)ccc1Oc1ncc(C(F)(F)F)c(C)c1C(=O)Nc1cccc([S@@](C)(=O)=NC(=O)[C@@H](C)N)c1` [Example 9D, N-(3-((R)—N-(D-alanyl)-S-methylsulfonimidoyl)phenyl)-2-((6-fluoro-2-methylpyridin-3-yl)oxy)-4-methyl-5-(trifluoromethyl)nicotinamide formate] the IC50 [5] was under 5 nM and the IC50 [6] was under 5 nM.

Compound `Cc1nc(F)ccc1Oc1cc(C(F)(F)F)cc(F)c1C(=O)Nc1ccnc([S@@](C)(=N)=O)c1` [Example 33A] has an IC50 [1] of 5 to 50 nM and an IC50 [2] of 5 to 50 nM.

In the case of `Cc1nc(F)ccc1Oc1ncc(C(F)(F)F)c(C)c1C(=O)Nc1cccc([S@@](C)(=O)=NC(=O)CO)c1` [Example 12D, (R)-2-((6-fluoro-2-methylpyridin-3-yl)oxy)-N-(3-(N-(2-hydroxyacetyl)-S-methylsulfonimidoyl)phenyl)-4-methyl-5-(trifluoromethyl)nicotinamide], the IC50 [5] is reported as under 5 nM and the IC50 [6] is reported as under 5 nM.

With `Cc1nc(F)ccc1Oc1cc(C2CC2)c(C(F)(F)F)cc1C(=O)Nc1ccc(F)c([S@@](C)(=N)=O)c1` [Example 51A] the IC50 [1] was under 5 nM and the IC50 [2] was under 5 nM.

In the case of `Cc1nc(F)ccc1Oc1cc(C(F)(F)F)c(Cl)cc1C(=O)Nc1cccc([S@@](C)(=O)=NC(=O)C(C)(C)N)c1` [Example 7B, (R)—N-(3-(N-(2-amino-2-methylpropanoyl)-S-methylsulfonimidoyl)phenyl)-5-chloro-2-((6-fluoro-2-methylpyridin-3-yl)oxy)-4-(trifluoromethyl)benzamide], the IC50 [7] is reported as under 5 nM and the IC50 [8] is reported as under 5 nM.

`Cc1nc(F)ccc1Oc1ncc(C(F)(F)F)c(C)c1C(=O)Nc1cccc([S@@](C)(=O)=NC(=O)[C@@H](C)O)c1` [Example 16D, 2-((6-fluoro-2-methylpyridin-3-yl)oxy)-N-(3-((R)—N—((R)-2-hydroxypropanoyl)-S-methylsulfonimidoyl)phenyl)-4-methyl-5-(trifluoromethyl)nicotinamide] gave an IC50 [5] of under 5 nM and an IC50 [6] of under 5 nM.

Reference: patent US20260356804A1, “SODIUM CHANNEL BLOCKING COMPOUNDS, DERIVATIVES THEREOF, AND METHODS OF THEIR USE” (LATIGO BIOTHERAPEUTICS, INC., priority 2022, published 2026)
